Assays:
Type in all cases: in vivo
[1] = system: corn (Zea mays); experiment: Test C; set-up: key: 0 was no effect; 100 was complete control
[2] = system: field bindweed (Convolvulus arvensis); experiment: Test C; set-up: key: 0 was no effect; 100 was complete control
[3] = system: lambsquarters (Chenopodium album); experiment: Test C; set-up: key: 0 was no effect; 100 was complete control
[4] = system: soybean (Glycine max); experiment: Test C; set-up: key: 0 was no effect; 100 was complete control
[5] = system: downy brome (Bromus tectorum); experiment: Test D; conditions: PREEMERGENCE
[6] = system: green foxtail (Setaria viridis); experiment: Test D; set-up: key: 0 is no effect; 100 is complete control; conditions: PREEMERGENCE
[7] = system: jointed goatgrass (Aegilops cylindrica); experiment: Test D; conditions: PREEMERGENCE
[8] = system: lambsquarters (Chenopodium album); experiment: Test D; set-up: key: 0 is no effect; 100 is complete control; conditions: PREEMERGENCE
[9] = system: redroot pigweed (Amaranthus retroflexus); experiment: Test D; set-up: key: 0 is no effect; 100 is complete control; conditions: PREEMERGENCE
[10] = system: Russian thistle (Salsola kali); experiment: Test D; conditions: PREEMERGENCE
[11] = system: winter wheat (Triticum aestivum); experiment: Test D; conditions: PREEMERGENCE
[12] = system: wild oat (Avena fatua); experiment: Test D; conditions: PREEMERGENCE
[13] = system: windgrass (Apera spica-venti); experiment: Test D; set-up: key: 0 is no effect; 100 is complete control; conditions: PREEMERGENCE
[14] = system: winter barley (Hordeum vulgare); experiment: Test D; conditions: PREEMERGENCE

Cc1cnc(-n2cnc(C(F)(F)F)n2)nc1Cc1cccc(C(F)(F)F)c1 [Compound 43]
Plant response rating, Corn ([1]; PREEMERGENCE, Rate 35 g/ha): 0
Plant response rating, Corn ([1]; PREEMERGENCE, Rate 70 g/ha): 30
Plant response rating, Corn ([1]; PREEMERGENCE, Rate 140 g/ha): 55
Plant response rating, Field bindweed ([2]; PREEMERGENCE, Rate 35 g/ha): 100
Plant response rating, Field bindweed ([2]; PREEMERGENCE, Rate 70 g/ha): 100
Plant response rating, Field bindweed ([2]; PREEMERGENCE, Rate 140 g/ha): 100
Plant response rating, Lambsquarters ([3]; PREEMERGENCE, Rate 35 g/ha): 100
Plant response rating, Lambsquarters ([3]; PREEMERGENCE, Rate 70 g/ha): 100
Plant response rating, Lambsquarters ([3]; PREEMERGENCE, Rate 140 g/ha): 100
Plant response rating, Soybean ([4]; PREEMERGENCE, Rate 35 g/ha): 0
Plant response rating, Soybean ([4]; PREEMERGENCE, Rate 70 g/ha): 5
Plant response rating, Soybean ([4]; PREEMERGENCE, Rate 140 g/ha): 55

Cc1cnc(-n2ccc(C(F)(F)F)n2)nc1Cn1ccc(C(F)(F)F)n1 [Compound 52]
Plant response rating, Corn ([1]; PREEMERGENCE, Rate 35 g/ha): 0
Plant response rating, Corn ([1]; PREEMERGENCE, Rate 70 g/ha): 45
Plant response rating, Corn ([1]; PREEMERGENCE, Rate 140 g/ha): 50
Plant response rating, Field bindweed ([2]; PREEMERGENCE, Rate 35 g/ha): 100
Plant response rating, Field bindweed ([2]; PREEMERGENCE, Rate 70 g/ha): 100
Plant response rating, Field bindweed ([2]; PREEMERGENCE, Rate 140 g/ha): 100
Plant response rating, Lambsquarters ([3]; PREEMERGENCE, Rate 35 g/ha): 100
Plant response rating, Lambsquarters ([3]; PREEMERGENCE, Rate 70 g/ha): 100
Plant response rating, Lambsquarters ([3]; PREEMERGENCE, Rate 140 g/ha): 100
Plant response rating, Soybean ([4]; PREEMERGENCE, Rate 35 g/ha): 0
Plant response rating, Soybean ([4]; PREEMERGENCE, Rate 70 g/ha): 55
Plant response rating, Soybean ([4]; PREEMERGENCE, Rate 140 g/ha): 70
Plant response rating, Downy brome ([5]; Rate 31 g/ha): 30
Plant response rating, Downy brome ([5]; Rate 62 g/ha): 40
Plant response rating, Downy brome ([5]; Rate 125 g/ha): 50
Plant response rating, Green foxtail ([6]; Rate 31 g/ha): 50
Plant response rating, Green foxtail ([6]; Rate 62 g/ha): 80
Plant response rating, Green foxtail ([6]; Rate 125 g/ha): 100
Plant response rating, Jointed goatgra ([7]; Rate 31 g/ha): 30
Plant response rating, Jointed goatgra ([7]; Rate 62 g/ha): 40
Plant response rating, Jointed goatgra ([7]; Rate 125 g/ha): 40
Plant response rating, Lambsquarters ([8]; Rate 31 g/ha): 90
Plant response rating, Lambsquarters ([8]; Rate 62 g/ha): 90
Plant response rating, Lambsquarters ([8]; Rate 125 g/ha): 100
Plant response rating, Redroot pigweed ([9]; Rate 31 g/ha): 90
Plant response rating, Redroot pigweed ([9]; Rate 62 g/ha): 90
Plant response rating, Redroot pigweed ([9]; Rate 125 g/ha): 100
Plant response rating, Russian thistle ([10]; Rate 31 g/ha): 30
Plant response rating, Russian thistle ([10]; Rate 62 g/ha): 85
Plant response rating, Russian thistle ([10]; Rate 125 g/ha): 85
Plant response rating, Wheat (winter) ([11]; Rate 31 g/ha): 50
Plant response rating, Wheat (winter) ([11]; Rate 62 g/ha): 60
Plant response rating, Wheat (winter) ([11]; Rate 125 g/ha): 60
Plant response rating, Wild oat ([12]; Rate 31 g/ha): 40
Plant response rating, Wild oat ([12]; Rate 62 g/ha): 50
Plant response rating, Wild oat ([12]; Rate 125 g/ha): 60
Plant response rating, Windgrass ([13]; Rate 31 g/ha): 80
Plant response rating, Windgrass ([13]; Rate 62 g/ha): 100
Plant response rating, Windgrass ([13]; Rate 125 g/ha): 100
Plant response rating, Barley (winter) ([14]; Rate 31 g/ha): 50
Plant response rating, Barley (winter) ([14]; Rate 62 g/ha): 50
Plant response rating, Barley (winter) ([14]; Rate 125 g/ha): 60

Cc1cnc(-n2ccc(C(F)(F)F)n2)nc1C(=O)c1cccc(OC(F)(F)F)c1 [Compound 66]
Plant response rating, Corn ([1]; PREEMERGENCE, Rate 35 g/ha): 0
Plant response rating, Corn ([1]; PREEMERGENCE, Rate 70 g/ha): 0
Plant response rating, Corn ([1]; PREEMERGENCE, Rate 140 g/ha): 0
Plant response rating, Field bindweed ([2]; PREEMERGENCE, Rate 35 g/ha): 40
Plant response rating, Field bindweed ([2]; PREEMERGENCE, Rate 70 g/ha): 80
Plant response rating, Field bindweed ([2]; PREEMERGENCE, Rate 140 g/ha): 90
Plant response rating, Lambsquarters ([3]; PREEMERGENCE, Rate 35 g/ha): 0
Plant response rating, Lambsquarters ([3]; PREEMERGENCE, Rate 70 g/ha): 0
Plant response rating, Lambsquarters ([3]; PREEMERGENCE, Rate 140 g/ha): 100
Plant response rating, Soybean ([4]; PREEMERGENCE, Rate 35 g/ha): 0
Plant response rating, Soybean ([4]; PREEMERGENCE, Rate 70 g/ha): 0
Plant response rating, Soybean ([4]; PREEMERGENCE, Rate 140 g/ha): 0

Cc1cnc(-c2ccc(C(F)(F)F)cc2)nc1Cn1ccc(C(F)(F)F)n1 [compound 9]
Plant response rating, Corn ([1]; POSTEMERGENCE, Rate 35 g/ha): 10
Plant response rating, Corn ([1]; POSTEMERGENCE, Rate 70 g/ha): 15
Plant response rating, Corn ([1]; POSTEMERGENCE, Rate 140 g/ha): 15
Plant response rating, Corn ([1]; PREEMERGENCE, Rate 35 g/ha): 0
Plant response rating, Corn ([1]; PREEMERGENCE, Rate 70 g/ha): 5
Plant response rating, Corn ([1]; PREEMERGENCE, Rate 140 g/ha): 10
Plant response rating, Field bindweed ([2]; POSTEMERGENCE, Rate 35 g/ha): 60
Plant response rating, Field bindweed ([2]; POSTEMERGENCE, Rate 70 g/ha): 70
Plant response rating, Field bindweed ([2]; POSTEMERGENCE, Rate 140 g/ha): 80
Plant response rating, Field bindweed ([2]; PREEMERGENCE, Rate 35 g/ha): 50
Plant response rating, Field bindweed ([2]; PREEMERGENCE, Rate 70 g/ha): 100
Plant response rating, Field bindweed ([2]; PREEMERGENCE, Rate 140 g/ha): 90
Plant response rating, Lambsquarters ([3]; POSTEMERGENCE, Rate 35 g/ha): 75
Plant response rating, Lambsquarters ([3]; POSTEMERGENCE, Rate 70 g/ha): 80
Plant response rating, Lambsquarters ([3]; POSTEMERGENCE, Rate 140 g/ha): 100
Plant response rating, Lambsquarters ([3]; PREEMERGENCE, Rate 35 g/ha): 95
Plant response rating, Lambsquarters ([3]; PREEMERGENCE, Rate 70 g/ha): 100
Plant response rating, Lambsquarters ([3]; PREEMERGENCE, Rate 140 g/ha): 100
Plant response rating, Soybean ([4]; POSTEMERGENCE, Rate 35 g/ha): 40
Plant response rating, Soybean ([4]; POSTEMERGENCE, Rate 70 g/ha): 50
Plant response rating, Soybean ([4]; POSTEMERGENCE, Rate 140 g/ha): 50
Plant response rating, Soybean ([4]; PREEMERGENCE, Rate 35 g/ha): 20
Plant response rating, Soybean ([4]; PREEMERGENCE, Rate 70 g/ha): 20
Plant response rating, Soybean ([4]; PREEMERGENCE, Rate 140 g/ha): 25
